Where two headings read alike, the source gives them in different places.
Columns and labels:
[1] = tested on: Vdr and Dhrs4 expression in STHdhQ111 cells; assay: Expression of Vdr and Dhrs4 in STHdhQ111 striatal cells; type: cell-based, mouse
CYP3A4 = CYP3A4 (Homo sapiens, UniProt P08684); assay: CYP3A4 inhibition in liver cells; type: in vitro ADME; conditions: read-out: CYP3A4 IC50; inhibition of cytochrome P450 enzymes in liver cells
Hct116 cells = assay: Cell proliferation inhibition assay, Hct116; type: cell-based, human; conditions: for IC50: read-out: Proliferation inhibition Hct116, IC50, 72h
STHdhQ111 striatal cells = assay: XTT assay of metabolic activity in STHdhQ111 striatal cells; type: cell-based, mouse; conditions: 24 and 48 hrs
[2] = tested on: class I and class II HDAC enzymes; assay: HDAC subtype selectivity profile from IC50 values; conditions: in words
CYP2D6 = CYP2D6 (Homo sapiens, UniProt P10635); assay: CYP2D6 inhibition in liver cells; type: in vitro ADME; conditions: read-out: CYP2D6 IC50; inhibition of cytochrome P450 enzymes in liver cells
HDAC8 = target: T1, HDAC8 (Homo sapiens, UniProt Q9BY41); assay: HDAC8 inhibition, recombinant enzyme cell-free assay; conditions: read-out: IC50 for Class I HDAC enzymes: HDAC8; Table 1
T1 sequence (Q9BY41 1-377): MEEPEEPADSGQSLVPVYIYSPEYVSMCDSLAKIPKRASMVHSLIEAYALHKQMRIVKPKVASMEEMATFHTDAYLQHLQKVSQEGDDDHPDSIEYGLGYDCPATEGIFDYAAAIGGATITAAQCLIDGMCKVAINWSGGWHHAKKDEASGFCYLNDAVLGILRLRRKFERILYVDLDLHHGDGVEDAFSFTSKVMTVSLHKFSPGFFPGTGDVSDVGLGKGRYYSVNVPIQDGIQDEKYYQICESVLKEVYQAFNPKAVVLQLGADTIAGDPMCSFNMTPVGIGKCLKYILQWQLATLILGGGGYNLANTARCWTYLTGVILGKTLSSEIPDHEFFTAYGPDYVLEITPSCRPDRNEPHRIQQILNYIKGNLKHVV

HDAC2 = HDAC2 (Homo sapiens, UniProt Q92769); assay: HDAC2 inhibition, Fluor-de-Lys fluorescence assay with purified enzyme
[3] = tested on: HD-related gene expression in striatum, R6/2 transgenic mice; assay: Real-time PCR of HD-related genes in striatum of R6/2 transgenic mice
IMR90 cells = type: cell-based, human; conditions: read-out: Proliferation inhibition IMR90, IC50; 72h
HDAC5 = HDAC5 (Homo sapiens, UniProt Q9UQL6); assay: HDAC5 inhibition; conditions: read-out: IC50 for Class II HDAC enzymes: HDAC5; Table 1
HDAC4 = HDAC4 (Homo sapiens, UniProt P56524); assay: HDAC4 inhibition; conditions: read-out: IC50 for Class II HDAC enzymes: HDAC4; Table 1
HDAC7 = target: T2, HDAC7 (Homo sapiens, UniProt Q8WUI4); assay: HDAC7 inhibition; conditions: read-out: IC50 for Class II HDAC enzymes: HDAC7; Table 1
T2 sequence (Q8WUI4 1-952): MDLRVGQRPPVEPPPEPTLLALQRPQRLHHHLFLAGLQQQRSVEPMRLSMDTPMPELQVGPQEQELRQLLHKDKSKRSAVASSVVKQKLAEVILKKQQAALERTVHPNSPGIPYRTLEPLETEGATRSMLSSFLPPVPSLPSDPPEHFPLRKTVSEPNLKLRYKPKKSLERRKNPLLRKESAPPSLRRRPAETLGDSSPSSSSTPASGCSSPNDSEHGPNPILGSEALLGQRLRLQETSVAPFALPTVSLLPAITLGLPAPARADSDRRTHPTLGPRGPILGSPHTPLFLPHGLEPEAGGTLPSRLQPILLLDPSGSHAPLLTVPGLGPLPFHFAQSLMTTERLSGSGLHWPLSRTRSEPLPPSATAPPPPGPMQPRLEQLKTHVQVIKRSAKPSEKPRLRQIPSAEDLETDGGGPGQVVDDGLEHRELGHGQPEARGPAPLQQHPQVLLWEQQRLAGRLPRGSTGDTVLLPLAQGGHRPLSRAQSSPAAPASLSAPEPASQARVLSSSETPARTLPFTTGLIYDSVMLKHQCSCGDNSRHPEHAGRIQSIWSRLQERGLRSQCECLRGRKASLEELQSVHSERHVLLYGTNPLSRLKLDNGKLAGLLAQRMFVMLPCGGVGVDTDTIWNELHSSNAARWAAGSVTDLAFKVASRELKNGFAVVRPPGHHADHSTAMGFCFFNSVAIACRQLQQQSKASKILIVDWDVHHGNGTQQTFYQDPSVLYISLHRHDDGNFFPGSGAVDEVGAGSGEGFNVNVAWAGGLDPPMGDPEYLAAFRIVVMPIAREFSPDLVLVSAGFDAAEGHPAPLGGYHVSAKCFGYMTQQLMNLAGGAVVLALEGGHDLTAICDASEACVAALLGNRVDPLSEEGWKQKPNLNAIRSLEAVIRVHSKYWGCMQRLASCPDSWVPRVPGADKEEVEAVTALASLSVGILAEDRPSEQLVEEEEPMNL

Chain of CYP2D6 (P10635 whole entry): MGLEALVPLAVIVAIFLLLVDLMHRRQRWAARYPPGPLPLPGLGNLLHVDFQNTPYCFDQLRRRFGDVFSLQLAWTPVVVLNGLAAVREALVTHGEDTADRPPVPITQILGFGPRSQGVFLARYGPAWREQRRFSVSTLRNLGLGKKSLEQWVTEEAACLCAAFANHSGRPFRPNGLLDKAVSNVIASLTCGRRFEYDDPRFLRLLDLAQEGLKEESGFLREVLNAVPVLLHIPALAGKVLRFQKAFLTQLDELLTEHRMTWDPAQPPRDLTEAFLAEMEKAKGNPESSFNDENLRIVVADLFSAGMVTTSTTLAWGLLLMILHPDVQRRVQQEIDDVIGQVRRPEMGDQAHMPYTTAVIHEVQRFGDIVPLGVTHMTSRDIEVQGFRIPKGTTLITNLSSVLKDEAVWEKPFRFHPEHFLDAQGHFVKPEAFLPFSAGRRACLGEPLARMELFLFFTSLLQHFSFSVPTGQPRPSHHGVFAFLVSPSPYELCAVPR
Chain of CYP3A4 (P08684 whole entry): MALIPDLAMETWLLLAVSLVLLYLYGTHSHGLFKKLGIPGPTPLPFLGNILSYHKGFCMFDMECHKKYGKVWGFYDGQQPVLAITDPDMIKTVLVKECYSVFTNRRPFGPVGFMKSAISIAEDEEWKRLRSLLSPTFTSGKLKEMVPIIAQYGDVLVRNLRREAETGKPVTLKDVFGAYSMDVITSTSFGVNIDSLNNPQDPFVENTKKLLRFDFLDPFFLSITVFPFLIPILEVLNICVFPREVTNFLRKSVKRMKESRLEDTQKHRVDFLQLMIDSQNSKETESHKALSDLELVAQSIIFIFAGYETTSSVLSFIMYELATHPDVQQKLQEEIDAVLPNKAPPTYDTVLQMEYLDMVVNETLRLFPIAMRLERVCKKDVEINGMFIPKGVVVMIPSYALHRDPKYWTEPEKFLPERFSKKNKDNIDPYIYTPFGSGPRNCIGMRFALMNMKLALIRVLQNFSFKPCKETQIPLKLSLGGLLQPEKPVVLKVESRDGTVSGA
Chain of HDAC2 (Q92769 whole entry): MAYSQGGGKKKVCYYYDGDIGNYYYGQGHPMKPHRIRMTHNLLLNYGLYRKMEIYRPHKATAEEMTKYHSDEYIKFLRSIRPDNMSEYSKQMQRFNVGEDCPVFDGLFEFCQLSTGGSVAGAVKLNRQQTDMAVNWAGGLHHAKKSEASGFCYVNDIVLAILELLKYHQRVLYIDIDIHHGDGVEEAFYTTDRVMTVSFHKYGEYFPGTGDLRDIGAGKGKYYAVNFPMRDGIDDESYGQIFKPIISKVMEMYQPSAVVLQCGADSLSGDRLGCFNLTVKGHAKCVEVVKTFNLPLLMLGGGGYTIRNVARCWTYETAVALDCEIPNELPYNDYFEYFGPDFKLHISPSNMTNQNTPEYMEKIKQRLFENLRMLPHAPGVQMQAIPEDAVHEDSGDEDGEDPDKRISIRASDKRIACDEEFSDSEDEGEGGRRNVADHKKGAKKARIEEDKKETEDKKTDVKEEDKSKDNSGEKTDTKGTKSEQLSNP
Chain of HDAC5 (Q9UQL6 whole entry, species assumed): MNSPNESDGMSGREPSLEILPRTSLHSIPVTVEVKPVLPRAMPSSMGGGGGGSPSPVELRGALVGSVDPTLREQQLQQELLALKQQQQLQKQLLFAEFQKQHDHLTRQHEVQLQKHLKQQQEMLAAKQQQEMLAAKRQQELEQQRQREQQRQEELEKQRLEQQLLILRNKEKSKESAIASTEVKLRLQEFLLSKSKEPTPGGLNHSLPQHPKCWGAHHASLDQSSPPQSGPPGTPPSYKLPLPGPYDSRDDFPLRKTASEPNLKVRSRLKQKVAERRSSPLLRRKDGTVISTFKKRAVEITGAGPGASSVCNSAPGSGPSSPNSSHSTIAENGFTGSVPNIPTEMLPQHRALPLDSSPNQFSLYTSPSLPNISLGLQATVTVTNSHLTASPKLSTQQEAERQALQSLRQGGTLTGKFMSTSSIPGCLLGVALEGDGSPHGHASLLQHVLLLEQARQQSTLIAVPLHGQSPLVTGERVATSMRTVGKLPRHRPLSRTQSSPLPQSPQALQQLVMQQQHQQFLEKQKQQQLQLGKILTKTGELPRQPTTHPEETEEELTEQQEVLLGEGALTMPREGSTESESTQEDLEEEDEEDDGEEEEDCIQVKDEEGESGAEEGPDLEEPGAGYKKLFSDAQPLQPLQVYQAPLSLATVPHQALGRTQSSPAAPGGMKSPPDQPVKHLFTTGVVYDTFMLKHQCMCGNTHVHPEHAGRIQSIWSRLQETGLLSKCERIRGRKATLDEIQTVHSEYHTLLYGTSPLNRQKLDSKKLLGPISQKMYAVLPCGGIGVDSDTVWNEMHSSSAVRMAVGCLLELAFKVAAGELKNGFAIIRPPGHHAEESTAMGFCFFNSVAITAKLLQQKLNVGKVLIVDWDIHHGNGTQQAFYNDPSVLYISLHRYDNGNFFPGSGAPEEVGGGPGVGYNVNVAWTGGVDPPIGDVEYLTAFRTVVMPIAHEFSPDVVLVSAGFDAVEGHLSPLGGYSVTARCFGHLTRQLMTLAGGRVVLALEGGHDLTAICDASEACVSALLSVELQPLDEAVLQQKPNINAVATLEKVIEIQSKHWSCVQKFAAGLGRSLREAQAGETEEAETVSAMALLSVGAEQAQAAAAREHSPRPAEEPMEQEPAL
Chain of HDAC4 (P56524 whole entry, species assumed): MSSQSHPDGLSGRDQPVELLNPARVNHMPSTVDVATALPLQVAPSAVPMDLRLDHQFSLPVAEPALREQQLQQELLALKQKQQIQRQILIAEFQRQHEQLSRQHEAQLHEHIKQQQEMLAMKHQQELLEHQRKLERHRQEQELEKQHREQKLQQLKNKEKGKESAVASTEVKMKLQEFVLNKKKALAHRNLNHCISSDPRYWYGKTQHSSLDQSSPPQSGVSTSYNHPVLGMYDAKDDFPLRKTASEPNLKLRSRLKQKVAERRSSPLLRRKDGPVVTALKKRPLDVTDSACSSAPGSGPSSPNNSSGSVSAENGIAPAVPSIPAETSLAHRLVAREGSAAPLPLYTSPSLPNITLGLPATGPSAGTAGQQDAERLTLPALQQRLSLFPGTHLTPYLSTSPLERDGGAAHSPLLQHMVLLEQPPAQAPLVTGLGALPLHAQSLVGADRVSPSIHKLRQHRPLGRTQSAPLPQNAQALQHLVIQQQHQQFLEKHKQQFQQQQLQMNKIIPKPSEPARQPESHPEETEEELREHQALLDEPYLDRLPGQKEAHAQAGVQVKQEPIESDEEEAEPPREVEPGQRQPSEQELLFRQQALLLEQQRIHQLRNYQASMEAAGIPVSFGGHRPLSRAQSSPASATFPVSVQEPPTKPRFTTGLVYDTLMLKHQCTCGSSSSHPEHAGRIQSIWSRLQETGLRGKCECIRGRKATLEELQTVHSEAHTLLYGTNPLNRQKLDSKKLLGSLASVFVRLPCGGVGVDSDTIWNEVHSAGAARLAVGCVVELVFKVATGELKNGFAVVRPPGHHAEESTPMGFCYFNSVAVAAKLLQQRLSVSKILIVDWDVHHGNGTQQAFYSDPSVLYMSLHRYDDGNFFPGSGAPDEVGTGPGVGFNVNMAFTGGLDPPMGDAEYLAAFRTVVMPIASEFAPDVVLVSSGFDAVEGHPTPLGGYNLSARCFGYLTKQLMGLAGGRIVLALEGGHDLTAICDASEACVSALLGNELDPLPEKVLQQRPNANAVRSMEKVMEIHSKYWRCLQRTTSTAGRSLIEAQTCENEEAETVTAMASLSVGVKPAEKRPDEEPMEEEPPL

| SMILES | reversal of gene expression deficits (Vdr, Dhrs4), in words [1] | IC50 (CYP3A4) [µM] | EC50 (Hct116 cells; read-out: EC50 for inhibition of proliferation of Hct116 cells) [µM] | IC50 (Hct116 cells) [µM] | improvement of the metabolic deficit of STHdhQ111 cells, in words (STHdhQ111 striatal cells) | activity against the class II HDACs, HDAC 4, 5 and 7 [2] | IC50 (CYP2D6) [µM] | IC50 (HDAC8) [µM] | IC50 (HDAC2; read-out: IC50 for Class I HDAC enzymes: HDAC2, Table 1) [µM] | reversal of expression of genes relevant to HD, in words ([3]; 150 mg/kg s.c. three days, striatum) | genes whose expression deficits were corrected, of 13 tested ([3]; qRT-PCR) | IC50 (IMR90 cells) [µM] | IC50 (HDAC5) [µM] | IC50 (HDAC4) [µM] | IC50 (HDAC7) [µM] | IC50 (HDAC2; read-out: HDAC2 IC50, Table 2) [µM] |
| --- | --- | --- | --- | --- | --- | --- | --- | --- | --- | --- | --- | --- | --- | --- | --- | --- |
| Cc1ccc(NC(=O)CCCCCC(=O)Nc2ccccc2N)cc1 [4b] | effective at reversing gene expression deficits | > 10 | 10 | 10 | significantly improved the metabolic deficit | essentially no activity | > 10 |  |  |  |  |  |  |  |  |  |
| Cc1ccc(C(=O)NCCCCCC(=O)Nc2ccc(F)cc2N)cc1 [compound 136] |  |  |  | 40 | significantly improved the metabolic deficit |  | > 10 | 13.2 | 3 | most effective | eight of the 13 genes tested | > 50 | > 180 | > 180 | > 180 |  |
| Nc1ccc(-c2cccs2)cc1NC(=O)CCCCCCNC(=O)c1cccnc1 [compound 233] |  | 0.11 |  |  |  |  | > 10 |  |  |  |  |  |  |  |  | 0.07 |

Source: PMC3528106 (Neurobiology of disease, 2012)
